Legend:
[1] = target: T1, Corticosteroid-binding globulin (Homo sapiens) (UniProt P08185)
T1 sequence (whole entry): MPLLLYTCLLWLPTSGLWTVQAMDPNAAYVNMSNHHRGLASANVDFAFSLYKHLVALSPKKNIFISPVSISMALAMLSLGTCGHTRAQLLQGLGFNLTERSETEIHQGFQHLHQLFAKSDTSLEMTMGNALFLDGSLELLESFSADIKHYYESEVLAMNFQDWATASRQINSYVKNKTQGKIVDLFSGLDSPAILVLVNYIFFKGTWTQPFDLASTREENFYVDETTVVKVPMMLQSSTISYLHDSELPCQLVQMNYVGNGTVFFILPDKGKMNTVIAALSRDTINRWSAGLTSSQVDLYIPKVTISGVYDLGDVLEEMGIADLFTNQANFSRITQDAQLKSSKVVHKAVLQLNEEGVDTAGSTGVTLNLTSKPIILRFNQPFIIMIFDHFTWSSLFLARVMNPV

[2] = target: T2, Sex hormone-binding globulin (Homo sapiens) (UniProt P04278)
T2 sequence (whole entry): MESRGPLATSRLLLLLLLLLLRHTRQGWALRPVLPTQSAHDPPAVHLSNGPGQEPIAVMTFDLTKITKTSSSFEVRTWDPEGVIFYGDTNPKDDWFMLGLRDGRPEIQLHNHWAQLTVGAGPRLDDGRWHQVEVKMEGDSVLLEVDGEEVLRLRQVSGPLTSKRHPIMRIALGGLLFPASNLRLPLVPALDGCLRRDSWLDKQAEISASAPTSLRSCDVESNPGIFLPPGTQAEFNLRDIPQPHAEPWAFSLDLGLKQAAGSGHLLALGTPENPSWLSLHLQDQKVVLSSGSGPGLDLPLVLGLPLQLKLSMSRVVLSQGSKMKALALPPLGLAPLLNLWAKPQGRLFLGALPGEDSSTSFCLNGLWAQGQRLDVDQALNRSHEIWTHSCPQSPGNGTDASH
Description: Binding affinity against testosterone-binding globulin (TeBG)

[3] = target: T1, Corticosteroid-binding globulin (Homo sapiens); remark: listed apart in the source
[4] = target: T1, Corticosteroid-binding globulin (Homo sapiens); assay: Binding affinity against corticosteroid-binding globulin (CBG)

| SMILES | Log 1/K [1] | Log 1/K [2] | Log 1/K [3] | Log 1/K [4] |
| --- | --- | --- | --- | --- |
| CC(=O)[C@@]1(O)CC[C@H]2[C@@H]3CCC4=CC(=O)CC[C@]4(C)[C@H]3CC[C@@]21C | 7.74 | 7 | – | – |
| C[C@]12C=CC(=O)C=C1CC[C@@H]1[C@@H]2[C@@H](O)C[C@@]2(C)[C@H]1CC[C@]2(O)C(=O)CO | 7.51 | – | – | – |
| C[C@]12CC[C@@H]3c4ccc(O)cc4CC[C@H]3[C@@H]1C[C@@H](O)[C@H]2O | 5 | 6.63 | – | – |
| C[C@]12CCC(=O)C=C1CC[C@@H]1[C@@H]2C(=O)C[C@@]2(C)[C@H]1CC[C@]2(O)C(=O)CO | 6.89 | 6.43 | – | – |
| C[C@]12CC[C@H]3[C@@H](CCC4=CC(=O)CC[C@@]43C)[C@@H]1CC[C@@H]2C(=O)CO | 7.65 | 7.38 | – | – |
| CC(=O)[C@@]1(O)[C@H](O)C[C@H]2[C@@H]3CCC4=CC(=O)CC[C@]4(C)[C@H]3CC[C@@]21C | 6.25 | – | – | – |
| CC(=O)[C@H]1CC[C@H]2[C@@H]3CCC4=CC(=O)CC[C@@H]4[C@H]3CC[C@]12C | 6.82 | – | – | – |
| CC(=O)[C@H]1CC[C@H]2[C@@H]3CC=C4C[C@@H](O)CC[C@]4(C)[C@H]3CC[C@]12C | 5.22 | 7.15 | – | – |
| C[C@]12CCC(=O)C=C1CC[C@@H]1[C@@H]2[C@@H](O)C[C@@]2(C)[C@H]1CC[C@]2(O)C(=O)CO | 7.88 | 6.2 | – | – |
| C[C@]12C[C@@H](O)[C@H]3[C@@H](CCC4=CC(=O)CC[C@@]43C)[C@@H]1CC[C@@H]2C(=O)CO | 7.2 | – | – | – |
| CC(=O)[C@@]1(O)CC[C@H]2[C@@H]3CC=C4C[C@@H](O)CC[C@]4(C)[C@H]3CC[C@@]21C | 5 | 6.36 | – | – |
| C[C@]12CCC(=O)C=C1CC[C@@H]1[C@@H]2CC[C@]2(C)C(=O)CC[C@@H]12 | 5.76 | 7.46 | – | – |
| CC(=O)[C@@]1(C)CCC2C3CCC4=CC(=O)CC[C@]4(C)C3CC[C@@]21C (some centres not stated) | 7.12 | – | – | – |
| C[C@]12CC[C@H](O)CC1=CC[C@@H]1[C@@H]2CC[C@]2(C)C(=O)CC[C@@H]12 | 5 | 7.82 | – | – |
| C[C@]12CCC(=O)C=C1CC[C@@H]1[C@@H]2CC[C@@]2(C)[C@H]1CC[C@]2(O)C(=O)CO | 7.88 | 7.2 | – | – |
| C[C@@H]1C[C@@]2(C)C(=CC1=O)CCC1C3CCC(C(=O)CO)[C@@]3(C)CC(O)[C@@]12F (some centres not stated) | 5.8 | – | – | – |
| CC(=O)[C@H]1CC[C@H]2[C@@H]3CCC4=CC(=O)CC[C@]4(C)[C@H]3C(=O)C[C@]12C | 6.78 | – | – | – |
| CC(=O)OCC(=O)[C@@]1(O)CCC2C3CCC4=CC(=O)CC[C@]4(C)C3C(O)C[C@@]21C (some centres not stated) | 7.55 | – | – | – |
| C[C@]12CC[C@H]3[C@@H](CCC4=CC(=O)CC[C@@H]43)[C@@H]1CC[C@@H]2O | 6.14 | – | – | – |
| CC(=O)[C@H]1CC[C@H]2[C@@H]3CCC4=CC(=O)CC[C@]4(C)[C@H]3CC[C@]12C | – | 6.94 | -7.38 | – |
| C[C@]12C[C@H](O)[C@H]3[C@@H](CCC4=CC(=O)CC[C@@]43C)[C@@H]1CC[C@@H]2C(=O)CO | 7.88 | 6.34 | – | – |
| C[C@]12CC[C@H](O)C[C@@H]1CC[C@@H]1[C@@H]2CC[C@]2(C)[C@@H](O)CC[C@@H]12 | 5 | 9.11 | – | – |
| C[C@]12CCC(=O)C=C1CCC1C3CC[C@H](C(=O)CO)[C@@]34C[C@H](OC4O)C12 (some centres not stated) | – | 5.32 | – | 6.28 |
